Consider one sequence from publication PMC8234864, “Early Effects of the Soluble Amyloid β25-35 Peptide in Rat Cortical Neurons: Modulation of Signal Transduction Mediated by Adenosine and Group I Metabotropic Glutamate Receptors” (International Journal of Molecular Sciences, 2021).

Where no end group is shown, it is not given here.

The test system of this test is A2BR (ADORA2B) gene expression. Description: A2BR gene expression by real-time PCR. The settings on record: 25 µM, 24 or 48 h. The format is cell-based, rat. Here is the method: Total RNA was extracted using an ABI 6100 Nucleic Acid PrepStation according to the manufacturer’s protocol (Applied Biosystems Inc., Foster City, CA, USA). Total RNA from cells was isolated and stored at −80 °C. The quality of isolated RNA was estimated by the ratio A260/A280 and was in the range of 1.9–2.1. RNA integrity was evaluated by agarose gel electrophoresis according to MIQE guidelines using the “bleach gel” method. RNA concentrations were determined from the A260. One microgram of total RNA was reverse transcribed using Applied Biosystems High-Capacity cDNA Archive Kit.
To assess relative gene expression in neurons, quantitative real-time RT-PCR analysis was performed with an Applied Biosystems Prism 7500 Fast Sequence Detection System using TaqMan® universal PCR master mix according to the manufacturer’s specifications. […] Levels of RNA expression were determined using the 7500 Fast System SDS software version 1.3.1 (Applied Biosystems) according to the 2^−ΔΔCt method. […] The results from three independent repeat assays, performed in different plates each using different cDNA’s from the cultures analyzed, were averaged to produce a single mean quantity value for each mRNA.

Regarding GSNKGAIIGLM [Aβ25-35], the A2BR gene expression result is listed as “significantly increased”.
